According to US11840521B2, “Modulators of Mas-related G-protein receptor X4 and related products and methods” (Escient Pharmaceuticals, Inc., priority 2019, dated 2023):

Target: MRGPRX4 (Homo sapiens, UniProt Q96LA9)
Test: MRGPR X4 antagonist activity, IP-One Gq HTRF assay in stably transfected HEK cells (versus agonist bilirubin, deoxycholic acid, conjugated bilirubin, urobilin, obeticholic acid or BAR502)
Type: cell-based
Set-up: expressed in transfected cells; host or cells: HEK cells, stably transfected
Settings: versus 10 μM Bilirubin agonist; HEK cells expressing human MRGPR X4; read-out: MRGPR4 Antagonist Activity
Method: HEK cells stably transfected to express human MRGPR X4 were maintained in an incubator at 37° C. with 5% CO2 and grown in DMEM media with 10% fetal bovine serum (FBS) and 1% each of sodium pyruvate, Glutamax, penicillin/streptomycin, and Geneticin. HEK cells stably transfected to express mouse MRGPR A1 were maintained in the same incubator and grown in DMEM media with 10% FBS, 1% each of sodium pyruvate, Glutamax, penicillin/streptomycin, Geneticin, and 2.2 mg/mL Hygromycin.
Cells were plated in a 384-well assay plate at 20,000 cells per well in 12 μL of Opti-MEM and kept in an incubator overnight. On the day of the assay, compounds solubilized at 10 mM in DMSO were added as a 10-point curve (10 uM final top concentration with 1:3 serial dilutions) using a Tecan D300E digital dispenser. […] Final concentrations of DMSO were kept consistent across the plate. Plates were incubated in the dark for 1 h at 37° C. and then for 30 minutes at room temperature. IP-1 standards and HTRF detection reagents were added according to the IP-One—Gq Kit purchased from Cisbio (part number 62IPAPEJ) and incubated in the dark for 1 h at room temperature. The plate was read on a Molecular Devices SpectraMax iD5 plate reader. The HTRF ratio was calculated from the raw data and graphed using GraphPad Prism to calculate an IC50 value for each compound.

Sequence of MRGPRX4 (Q96LA9 whole entry): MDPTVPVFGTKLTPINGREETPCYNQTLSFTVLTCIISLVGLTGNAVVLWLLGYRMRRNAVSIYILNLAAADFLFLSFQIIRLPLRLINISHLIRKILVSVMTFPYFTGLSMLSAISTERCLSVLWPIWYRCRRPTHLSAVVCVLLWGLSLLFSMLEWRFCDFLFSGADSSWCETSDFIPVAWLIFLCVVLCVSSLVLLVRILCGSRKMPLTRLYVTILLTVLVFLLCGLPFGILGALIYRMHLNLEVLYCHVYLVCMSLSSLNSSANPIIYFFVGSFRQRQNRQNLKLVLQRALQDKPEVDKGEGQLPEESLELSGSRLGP

| IC50 | Structure (SMILES) |
| --- | --- |
| 100 to 500 nM | N#CCNC(=O)c1ccc(COc2ccc(C(F)(F)F)cc2Cl)cc1 [Compound 52-6] |
| 100 to 500 nM | FC(F)(F)c1ccc(OCc2cccc(-c3ncc[nH]3)c2)c(Cl)c1 [Compound 46-1, 2-(3-((2-chloro-4-(trifluoromethyl)phenoxy)methyl)phenyl)-1H-imidazole] |
| 100 to 500 nM | O=C(O)c1cccc(COc2ccc(C(F)F)cc2)c1 [Compound 33-2] |
| 1000 to 2500 nM | COC1CCN(C(=O)c2cccc(COc3ccc(C(F)(F)F)cc3Cl)c2)CC1 [Compound 52-14] |
| 100 to 500 nM | O=C(NC1CCC1)c1cccc(COc2ccc(C(F)(F)F)cc2Cl)c1 [Compound 52-24] |
| 500 to 1000 nM | C[C@@H](O)[C@H](NC(=O)c1cccc(COc2ccc(C(F)(F)F)cc2Cl)c1)C(=O)O [Compound 54-8] |
| 100 to 500 nM | CCNC(=O)c1cccc(COc2ccc(C(F)(F)F)cc2Cl)c1 [Compound 52-10] |
| > 2500 nM | O=C(O)c1cccc(COc2ccccc2C(F)F)c1 [Compound 33-1, 3-((2-(difluoromethyl)phenoxy)methyl)benzoic acid] |
| 500 to 1000 nM | O=C(NC1CCCC(O)C1)c1cccc(COc2ccc(C(F)(F)F)cc2Cl)c1 (centres unmarked) [Compound 52-19] |
| 1000 to 2500 nM | Cc1ccc(OCc2cccc(C(=O)O)c2)c(C)c1 [Compound 3-7] |
| < 100 nM | Cc1cc(C(F)(F)F)ccc1OCc1cccc(-c2nnn[nH]2)c1 [Compound 17-11] |
| 100 to 500 nM | CCOC(=O)c1cccc(COc2ccc(C(F)(F)F)cc2Cl)c1F [Compound 56-1, ethyl 3-((2-chloro-4-(trifluoromethyl)phenoxy)methyl)-2-fluorobenzoate] |
| < 100 nM | CCc1cc(COc2ccc(Cl)c(Cl)c2Cl)nc(C(=O)O)c1 [Compound 42-2] |
| 1000 to 2500 nM | O=C(O)c1cccc(Oc2ccc(Cl)cc2Cl)c1 [Compound 16-1, 3-(2,4-dichlorophenoxy)benzoic acid] |
| < 100 nM | Fc1ccc(COc2ccc(C(F)(F)F)cc2Cl)cc1-c1nnn[nH]1 [Compound 17-16] |
| 100 to 500 nM | CC(C)NC(=O)c1cccc(COc2ccc(C(F)(F)F)cc2Cl)c1 [Compound 52-8] |
| 500 to 1000 nM | FC(F)(F)c1ccc(OCc2cccc(-c3cnc[nH]3)c2)c(Cl)c1 [Compound 47-1, 5-(3-((2-chloro-4-(trifluoromethyl)phenoxy)methyl)phenyl)-1H-imidazole] |
| 500 to 1000 nM | N#Cc1cccc(COc2ccc(Cl)cc2Cl)c1 [Compound 3-1] |
| < 100 nM | O=C(O)c1cc(F)cc(COc2ccc(Cl)cc2Cl)c1 [Compound 4-4] |
| 100 to 500 nM | N#Cc1cc(C#Cc2ccc(C(F)(F)F)cc2Cl)cc(C(=O)O)c1 [Compound 60-1, 3-((2-chloro-4-(trifluoromethyl)phenyl)ethynyl)-5-cyanobenzoic acid] |

| IC50 | Structure (SMILES) |
| --- | --- |
| < 100 nM | Fc1cc(OCc2cccc(-c3nnn[nH]3)c2)ccc1C(F)(F)F [Compound 17-9] |
| < 100 nM | Cc1cc(COc2ccc(Cl)cc2Cl)cc(C(=O)O)c1 [Compound 4-7] |
| 500 to 1000 nM | FC(F)(F)c1ccc(OCc2cccc(-c3nc[nH]n3)c2)c(Cl)c1 [Compound 45-2, 3-(3-((2-chloro-4-(trifluoromethyl)phenoxy)methyl)phenyl)-1H-1,2,4-triazole] |
| 500 to 1000 nM | O=C(c1cccc(COc2ccc(C(F)(F)F)cc2Cl)c1)N1CCCC(O)C1 (centres unmarked) [Compound 52-21] |
| < 100 nM | COCCCNC(=O)c1cccc(COc2ccc(C(F)(F)F)cc2Cl)c1 [Compound 52-13] |
| 100 to 500 nM | O=C(O)c1cc(COc2ccc(C(F)(F)F)c(Cl)c2)cc(C(F)(F)F)c1 [Compound 4-16] |
| 500 to 1000 nM | CN(C)CCNC(=O)c1cccc(COc2ccc(C(F)(F)F)cc2Cl)c1 [Compound 52-17] |
| > 2500 nM | O=C(O)c1cccc(NC(=O)c2cccc(COc3ccc(C(F)(F)F)cc3Cl)c2)c1 [Compound 54-11] |
| < 100 nM | O=C(O)c1cc(Br)cc(COc2ccc(C(F)(F)F)cc2Cl)n1 [Compound 9-1, 4-bromo-6-((2-chloro-4-(trifluoromethyl)phenoxy)methyl)picolinic acid] |
| 100 to 500 nM | O=C(O)c1cccc(COc2cccc(Cl)c2Cl)c1 [Compound 3-4] |
| 1000 to 2500 nM | OCc1cccc(COc2ccc(Cl)cc2Cl)c1 [Compound 14-1, (3-((2,4-dichlorophenoxy)methyl)phenyl)methanol] |
| < 100 nM | Fc1ccc(OCc2cccc(-c3nnn[nH]3)c2)c(Cl)c1 [Compound 17-7] |
| 500 to 1000 nM | O=C(O)c1ccc(NC(=O)c2cccc(COc3ccc(C(F)(F)F)cc3Cl)c2)cc1 [Compound 54-10] |
| 500 to 1000 nM | C#Cc1cc(C(F)(F)F)ccc1OCc1cccc(C(=O)O)c1F [Compound 36-1, 3-((2-ethynyl-4-(trifluoromethyl)phenoxy)methyl)-2-fluorobenzoic acid] |
| 1000 to 2500 nM | O=C(O)c1cccc(COc2cc(Cl)cc(Cl)c2)c1 [Compound 3-9] |
| > 2500 nM | O=C(c1ccc(COc2ccc(C(F)(F)F)cc2Cl)cc1)N1CC2(COC2)C1 [Compound 52-2] |
| 1000 to 2500 nM | O=C(O)c1ccc(F)c(COc2ccc(Cl)cc2Cl)c1 [Compound 4-2] |
| 100 to 500 nM | O=C(O)c1cc(COc2ccc(C(F)(F)F)cc2Cl)cc(C(F)(F)F)c1 [Compound 4-20] |
| 100 to 500 nM | O=C(NCS(=O)(=O)O)c1ccc(COc2ccc(C(F)(F)F)cc2Cl)cc1 [Compound 52-3] |

The remaining lines, values behind:

| Structure (SMILES) | IC50 |
| --- | --- |
| COc1ccc(COc2ccc(Cl)cc2Cl)cc1C(=O)O [Compound 1-32] | 1000 to 2500 nM |
| O=C(O)c1cccc(COc2ccc(Cl)c(Cl)c2F)c1 [Compound 1-149] | < 100 nM |
| O=C(O)c1cccc(COc2ccc3c(c2)CCC3=O)c1 [Compound 1-74] | > 2500 nM |
| CC(C)c1ccc(OCc2cccc(C(=O)O)c2)cc1 [Compound 1-86] | 500 to 1000 nM |
| O=C(O)c1cccc(COc2ccc3occc3c2)c1 [Compound 1-131] | 100 to 500 nM |
| Cc1c(Cl)cccc1OCc1cccc(C(=O)O)c1 [Compound 1-95] | 100 to 500 nM |
| O=C(O)c1cccc(COc2ccc3ccsc3c2)c1 [Compound 1-97] | 100 to 500 nM |
| CC(=O)c1ccc(OCc2cccc(C(=O)O)c2)cc1 [Compound 1-54] | > 2500 nM |
| COc1ccc(OCc2cccc(C(=O)O)c2)c2ccccc12 [Compound 1-147] | 1000 to 2500 nM |
| Cc1ccc(OCc2cccc(C(=O)O)c2)cc1F [Compound 1-89] | 100 to 500 nM |
| N#Cc1cc(OCc2cccc(C(=O)O)c2)ccc1Cl [Compound 1-70] | 1000 to 2500 nM |
| Cc1cc(OCc2cccc(C(=O)O)c2)ccc1OC(F)(F)F [Compound 1-139] | > 2500 nM |
| O=C(O)c1cccc(COc2ccc(OC(F)(F)F)cc2)c1 [Compound 1-47] | 100 to 500 nM |
| O=C(O)c1cccc(COc2ccc3c(c2)C(=O)CCC3)c1 [Compound 1-151] | > 2500 nM |
| O=C(O)c1cccc(COc2ccc3ccccc3c2)n1 [Compound 1-30] | < 100 nM |
| O=C(O)c1cccc(COc2cccc(C(F)(F)F)c2)c1 [Compound 1-140] | 1000 to 2500 nM |
| COC(=O)c1cncc(COc2ccc(Cl)cc2Cl)n1 [Compound 1-9] | 1000 to 2500 nM |
| O=C(O)c1cccc(COc2ccccc2F)c1 [Compound 1-40] | 1000 to 2500 nM |
| N#CCc1ccccc1OCc1cccc(C(=O)O)c1 [Compound 1-150] | > 2500 nM |

| Structure (SMILES) | IC50 |
| --- | --- |
| O=C(O)c1cccc(COc2ccc(Cl)c(Cl)c2Cl)c1F [Compound 1-124] | < 100 nM |
| O=C(O)c1cccc(COc2ccc(Cl)cc2)n1 [Compound 1-36] | 500 to 1000 nM |
| Cc1cc(COc2ccc(Cl)c(Cl)c2Cl)nc(C(=O)O)c1 [Compound 2-4] | < 100 nM |
| O=C(O)c1cccc(COc2ccc(C(F)(F)F)cc2F)c1 [Compound 1-64] | < 100 nM |
| Cc1cc(C#N)ccc1OCc1cccc(C(=O)O)c1 [Compound 1-99] | 100 to 500 nM |
| N#Cc1ccc(OCc2cccc(C(=O)O)c2)c(Cl)c1 [Compound 1-35] | 100 to 500 nM |
| O=C(O)c1cccc(COc2ccc(Cl)c(F)c2)c1 [Compound 1-59] | < 100 nM |
| O=C(O)c1ccccc1COc1ccc(Cl)cc1Cl [Compound 1-114] | 1000 to 2500 nM |
| O=C(O)c1cccc(COc2ccc(Cl)c(F)c2Cl)c1 [Compound 1-148] | < 100 nM |
| O=C(O)c1cccc(COc2ccc(OC(F)(F)F)c(Cl)c2)n1 [Compound 1-129] | < 100 nM |
| N#Cc1ccc(OCc2cccc(C(=O)O)c2)c(C(F)(F)F)c1 [Compound 1-68] | 100 to 500 nM |
| COC(=O)c1cccc(COc2ccc(Cl)cc2C(F)(F)F)c1 [Compound 1-1] | 1000 to 2500 nM |
| Cc1cc(Cl)cc(Cl)c1OCc1cccc(C(=O)O)c1 [Compound 1-50] | 1000 to 2500 nM |
| O=C(O)c1cccc(COc2ccc3ccccc3c2)c1 [Compound 1-17] | 100 to 500 nM |
| O=C(O)c1cccc(COc2ccc3sccc3c2)c1 [Compound 1-134] | 100 to 500 nM |
| N#Cc1c(Cl)cccc1OCc1cccc(C(=O)O)c1 [Compound 1-76] | 100 to 500 nM |
| COC(=O)c1cccc(COc2ccc(Cl)cc2C(F)(F)F)n1 [Compound 1-10] | 500 to 1000 nM |
| O=C(O)c1cccc(COc2ccc(-n3cccc3)cc2)c1 [Compound 1-80] | 100 to 500 nM |
| COc1cc(COc2ccc(C(F)(F)F)cc2Cl)cc(C(=O)O)c1 [Compound 2-2] | < 100 nM |
